The text below walks through data of ChEMBL document CHEMBL3639247, “Pyrazole compounds as CRTH2 antagonists” (2014).

By Ki is commonly meant the dissociation constant of the complex between target and ligand, obtained from inhibition or displacement.

This assay has as its target T1, Prostaglandin D2 receptor 2 (Homo sapiens, UniProt Q9Y5Y4).
T1 sequence (Q9Y5Y4 whole entry): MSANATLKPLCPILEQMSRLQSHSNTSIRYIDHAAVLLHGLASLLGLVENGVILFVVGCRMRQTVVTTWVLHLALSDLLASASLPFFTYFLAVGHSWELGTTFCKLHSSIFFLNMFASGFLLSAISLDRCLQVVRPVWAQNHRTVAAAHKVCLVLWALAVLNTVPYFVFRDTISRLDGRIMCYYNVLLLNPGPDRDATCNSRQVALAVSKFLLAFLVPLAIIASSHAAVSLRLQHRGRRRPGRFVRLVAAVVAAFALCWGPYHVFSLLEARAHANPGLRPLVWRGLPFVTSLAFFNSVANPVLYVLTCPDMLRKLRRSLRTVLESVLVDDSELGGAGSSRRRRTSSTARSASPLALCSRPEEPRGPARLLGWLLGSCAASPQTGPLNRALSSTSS
The assay is described as follows: Radioligand Binding Assay: The CRTH2 receptor binding assay is performed in a scintillation proximity assay (SPA) format with the radioligand [3H]-PGD2 (Perkin Elmer, NET616000MC). CHO-K1-hCRTH2 cell membranes are again homogenized by passing through a single use needle (Terumo, 23Gx1'') and diluted in SPA incubation buffer in suitable concentrations (0.5-10 ug protein/well). The SPA assay is set up in 96 well microtiter plates (Perkin Elmer, CatNo. 6005040) in SPA incubation buffer with a final volume of 200 ul per well and final concentration of 50 mM Tris-HCl, 10 mM MgCl2, 150 mM NaCl, 1 mM EDTA pH 7.4, 0.1% bovine serum albumin). The SPA assay mixture contains 60 ul of the membrane suspension, 80 ul of Wheat Germ Agglutinin coated PVT beads (GE Healthcare, RPNQ-0001, 0.3 mg/well), 40 ul of [3H]-PGD2 diluted in SPA buffer to a final concentration of 1 nM (50 000 dpm) and 20 ul of the test compound (dissolved in dimethylsulfoxid). (In general: SPA uses beads or plates that emit light when radiolabelled molecules are held near them.)

Each structure is given as a SMILES string.

For `CCc1nn(Cc2ccc(NC(=O)C3CCC(C(F)(F)F)CC3)cc2)c(CC)c1CC(=O)O` (stereo unspecified), the Ki was found to be 23.9 nM.
